Measured values from ChEMBL document CHEMBL1135216, “New 2-(1-adamantylcarbonyl)pyridine and 1-acetyladamantane thiosemicarbazones-thiocarbonohydrazones: cell growth inhibitory, antiviral and antimicrobial activity evaluation” (Bioorg Med Chem Lett, 2002).
Converted amounts (≈) assume the structure as drawn.

How the values were obtained:
[1] = test system: E6SM; experiment: Tested for antiviral activity against VSV-virus in human embryonic skin muscle fibroblasts; assay type: functional; conditions: Muscle tissue
[2] = test system: E6SM; experiment: Tested for antiviral activity against herpes simplex virus type 1(KOS) in E6SM cell line(human embryonic skin-muscle fibroblasts); assay type: functional
[3] = test system: E6SM; experiment: Tested for antiviral activity against thymidine kinase-deficient (TK-HSV-2G) virus in E6SM cell line(human embryonic skin-muscle fibroblasts); assay type: functional
[4] = test system: E6SM; experiment: Tested for antiviral activity against vaccinia virus in human embryonic skin muscle fibroblast; assay type: functional; conditions: Muscle tissue
[5] = test system: E6SM; experiment: The compound was tested for antiviral activity against thymidine kinase-deficient (TK-HSV-1)virus in E6SM cell line(human embryonic skin-muscle fibroblasts); assay type: functional
[6] = test system: E6SM; experiment: Tested for cytotoxic activity in human embryonic skin muscle fibroblast (E6SM); assay type: functional; conditions: Muscle tissue
[7] = test system: HEL; experiment: Tested for cytotoxic activity in human embryonic lung fibroblast (HEL); assay type: functional
[8] = test system: HEL; experiment: Tested for antiviral activity against human cytomegalovirus (AD-169) in human embryonic lung fibroblasts; assay type: functional
[9] = test system: CCRF-CEM; experiment: Tested for the inhibitory concentration against cell growth of human leukemic cell line CCRF-CEM; assay type: functional
[10] = test system: CCRF-CEM; experiment: Tested for the concentration required to reduce the viability of leukemia cells by 50% against cell growth of T cell leukemia cell line CCRF-CEM using MTT assay; assay type: functional; conditions: Homo sapiens
[11] = test system: CCRF-CEM; experiment: Tested for the inhibitory concentration against cell growth of Tcell leukemic cell line CCRF-CEM using MTT assay; assay type: functional; conditions: Homo sapiens
[12] = test system: HeLa; experiment: The compound was tested for antiviral activity against VSV-virus in human epithelial cells; assay type: functional
[13] = test system: E6SM; experiment: Antiviral activity against thymidine kinase-deficient (TK-HSV-1)virus in E6SM cell line(human embryonic skin-muscle fibroblasts); assay type: functional
[14] = test system: Escherichia coli; experiment: Tested for the antimicrobial activity against Escherichia coli ATCC 25922; assay type: functional
[15] = test system: HEL; experiment: Tested for antiviral activity against thymidine kinase deficient Varicella zoster virus in human embryonic lung fibroblasts; assay type: functional
[16] = test system: HEL; experiment: Tested for antiviral activity against thymidine kinase wild type Varicella zoster virus in human embryonic lung fibroblast; assay type: functional
[17] = test system: HeLa; experiment: Tested for antiviral activity against coxsackie-B4 virus in human epithelial cell line; assay type: functional
[18] = test system: HL-60; experiment: Tested for the inhibitory concentration against cell growth of human leukemic cell line HL60; assay type: functional
[19] = test system: HL-60; experiment: Tested for the concentration required to reduce the viability of leukemia cells by 50% against cell growth of HL60 acute myeloid leukemia using MTT assay; assay type: functional; conditions: Homo sapiens, read-out: LC50 (the source's name)
[20] = test system: HL-60; experiment: Tested for the inhibitory concentration against cell growth of HL60 acute myeloid leukemia using MTT assay; assay type: functional; conditions: Homo sapiens
[21] = test system: HeLa; experiment: Tested for cytotoxic activity in human epithelial cell line (HeLa); assay type: functional
[22] = test system: HuT78; experiment: Tested for the inhibitory concentration against cell growth of human leukemic cell line HuT78; assay type: functional
[23] = test system: HuT78; experiment: Tested for the concentration required to reduce the viability of leukemia cells by 50% against cell growth of HuT78 T lymphoma using MTT assay; assay type: functional; conditions: Homo sapiens
[24] = test system: HuT78; experiment: Tested for the inhibitory concentration against cell growth of HuT78 T lymphoma using MTT assay; assay type: functional; conditions: Homo sapiens
[25] = test system: K562; experiment: Tested for the concentration required to reduce the viability of leukemia cells by 50% against cell growth of K562 chronic myeloid leukemia using MTT assay; assay type: functional; conditions: Homo sapiens, read-out: LC50 (the source's name)
[26] = test system: K562; experiment: Tested for the inhibitory concentration against cell growth of K562 chronic myeloid leukemia using MTT assay; assay type: functional; conditions: Homo sapiens
[27] = test system: K562; experiment: Tested for the inhibitory concentration against cell growth of human leukemic cell line K562; assay type: functional
[28] = test system: Klebsiella pneumoniae; experiment: Tested for the antimicrobial activity against Klebsiella pneumoniae ATCC 13883; assay type: functional
[29] = test system: MOLT-4; experiment: Tested for the inhibitory concentration against cell growth of human leukemic cell line MOLT-4; assay type: functional
[30] = test system: MT4; experiment: Tested for effective concentration required to protect MT-4 cells against the cytopathicity of HIV-1(IIIB); assay type: functional; conditions: Homo sapiens, read-out: LC50 (the source's name)
[31] = test system: MT4; experiment: Tested for effective concentration required to protect MT-4 cells against the cytopathicity of HIV-2(ROD); assay type: functional, cell-based; conditions: Homo sapiens
[32] = test system: MOLT-4; experiment: Tested for the concentration required to reduce the viability of leukemia cells by 50% against cell growth of T cell leukemia cell line MOLT-4 using MTT assay; assay type: functional; conditions: Homo sapiens
[33] = test system: MOLT-4; experiment: Tested for the inhibitory concentration against cell growth of Tcell leukemic cell line MOLT-4 using MTT assay; assay type: functional; conditions: Homo sapiens
[34] = test system: RPMI-8226; experiment: Tested for the inhibitory concentration against cell growth of human leukemic cell line RPMI8226; assay type: functional
[35] = test system: RPMI-8226; experiment: Tested for the concentration required to reduce the viability of leukemia cells by 50% against cell growth of RPMI8226 multiple myeloma using MTT assay; assay type: functional; conditions: Homo sapiens, read-out: LC50 (the source's name)
[36] = test system: RPMI-8226; experiment: Tested for the inhibitory concentration against cell growth of […] multiple myeloma using MTT assay; assay type: functional; conditions: Homo sapiens
[37] = test system: Staphylococcus aureus; experiment: Tested for the antimicrobial activity against Staphylococcus aureus ATCC 6538; assay type: functional
[38] = test system: Staphylococcus epidermidis; experiment: Tested for the antimicrobial activity against Staphylococcus epidermidis ATCC 12228; assay type: functional
[39] = test system: Staphylococcus hominis; experiment: Tested for the antimicrobial activity against Staphylococcus hominis ATCC 27844; assay type: functional
[40] = test system: Vero; experiment: Tested for cytotoxic activity in African green monkey kidney cells (Vero); assay type: functional; conditions: Chlorocebus sabaeus
[41] = test system: Vero; experiment: Tested for antiviral activity against Punta toro virus in African green monkey kidney cell (Vero); assay type: functional; conditions: Chlorocebus sabaeus
[42] = test system: Vero; experiment: Tested for antiviral activity against Reo-1 virus in African green monkey kidney cell (Vero); assay type: functional; conditions: Chlorocebus sabaeus
[43] = test system: Vero; experiment: Tested for antiviral activity against Sindbis virus in African green monkey kidney cell (Vero); assay type: functional; conditions: Chlorocebus sabaeus
[44] = test system: Vero; experiment: Tested for antiviral activity against coxsackie B-4 virus in African green monkey kidney cell (Vero); assay type: functional; conditions: Chlorocebus sabaeus
[45] = test system: Vero; experiment: Tested for antiviral activity against parainfluenza virus in african green monkey kidney cell (Vero); assay type: functional; conditions: Chlorocebus sabaeus
[46] = test system: MT4; experiment: Tested for cytotoxic concentration required to reduce the viability of MT-4 cells by 50%; assay type: functional, cell-based; conditions: Homo sapiens, read-out: EC50 (the source's name)
[47] = read-out: LC50 (the source's name)

Nc1nc2c(ncn2COC(CO)CO)c(=O)[nH]1 [GANCICLOVIR]
MIC [1]: 9.6 µg/mL (≈ 37.6 µM) | MIC [2]: 0.0064 µg/mL | MIC [3]: 0.019 µg/mL (≈ 0.0744 µM) | MIC [4]: > 100 µg/mL | MIC [5]: 9.6 µg/mL (≈ 37.6 µM) | MCC [6]: > 100 µg/mL | MCC [7]: > 50 µg/mL | MIC [8]: 2 µg/mL (≈ 7.84 µM)

Nc1ccn(C[C@@H](CO)OCP(=O)(O)O)c(=O)n1.O.O [CIDOFOVIR]
MCC [7]: > 50 µg/mL | MIC [8]: 0.27 µg/mL

C/C(=N/N=C(/S)NN)C12CC3CC(CC(C3)C1)C2
GI50 [9]: 36.8 µM | TGI [10]: 100 µM | TGI [11]: 100 µM | MIC [1]: > 16 µg/mL | MIC [2]: > 16 µM | MIC [3]: > 16 µg/mL | MIC [4]: > 16 µg/mL | MIC [12]: > 16 µg/mL | MCC [6]: > 80 µg/mL | MIC [13]: > 16 µg/mL | MIC [14]: > 3760 µg/mL | MCC [7]: > 20 µg/mL | MIC [8]: > 5 µg/mL | MIC [15]: > 20 µg/mL | MIC [16]: 10.5 µg/mL (≈ 39.4 µM) | MIC [17]: > 16 µg/mL | GI50 [18]: 48.7 µM | CC50 [19]: 100 µM | TGI [20]: 92 µM | MCC [21]: 80 µg/mL | GI50 [22]: 20.5 µM | TGI [23]: 100 µM | TGI [24]: 100 µM | CC50 [25]: 100 µM | TGI [26]: 68.4 µM | GI50 [27]: 14.7 µM | MIC [28]: > 3760 µg/mL | GI50 [29]: 22.2 µM | EC50 [30]: > 7 µM | EC50 [31]: > 7 µM | TGI [32]: 100 µM | TGI [33]: 100 µM | GI50 [34]: 94.2 µM | CC50 [35]: 100 µM | TGI [36]: 100 µM | MIC [37]: > 3760 µg/mL | MIC [38]: > 3760 µg/mL | MIC [39]: > 3760 µg/mL | MCC [40]: 80 µg/mL | MIC [41]: > 80 µg/mL | MIC [42]: > 80 µg/mL | MIC [43]: > 80 µg/mL | MIC [44]: > 80 µg/mL | MIC [45]: > 80 µg/mL | CC50 [46]: 7.1 µM

CC[C@]1(O)C[C@@H]2CN(CCc3c([nH]c4ccccc34)[C@@](C(=O)OC)(c3cc4c(cc3OC)N(C)[C@H]3[C@@](O)(C(=O)OC)[C@H](OC(C)=O)[C@]5(CC)C=CCN6CC[C@]43[C@@H]65)C2)C1 [VINBLASTINE]
GI50 [9]: 2e-05 µM | CC50 [10, 47]: 0.00573 µM | TGI [11]: 0.00191 µM | GI50 [18]: 3.6e-05 µM | CC50 [19]: 0.00151 µM | TGI [20]: 0.00025 µM | GI50 [22]: < 0.00025 µM | CC50 [23, 47]: 0.00025 µM | TGI [24]: < 0.00025 µM | CC50 [25]: < 0.00025 µM | TGI [26]: < 0.00025 µM | GI50 [27]: < 0.00025 µM | GI50 [29]: < 0.00025 µM | CC50 [32, 47]: < 0.00025 µM | TGI [33]: < 0.00025 µM | GI50 [34]: 3e-06 µM | CC50 [35]: 0.00328 µM | TGI [36]: 0.0008 µM
